The test has as its target T1, Solute carrier family 22 member 2 (Rattus norvegicus, UniProt Q9R0W2).
T1 sequence (Q9R0W2 whole entry): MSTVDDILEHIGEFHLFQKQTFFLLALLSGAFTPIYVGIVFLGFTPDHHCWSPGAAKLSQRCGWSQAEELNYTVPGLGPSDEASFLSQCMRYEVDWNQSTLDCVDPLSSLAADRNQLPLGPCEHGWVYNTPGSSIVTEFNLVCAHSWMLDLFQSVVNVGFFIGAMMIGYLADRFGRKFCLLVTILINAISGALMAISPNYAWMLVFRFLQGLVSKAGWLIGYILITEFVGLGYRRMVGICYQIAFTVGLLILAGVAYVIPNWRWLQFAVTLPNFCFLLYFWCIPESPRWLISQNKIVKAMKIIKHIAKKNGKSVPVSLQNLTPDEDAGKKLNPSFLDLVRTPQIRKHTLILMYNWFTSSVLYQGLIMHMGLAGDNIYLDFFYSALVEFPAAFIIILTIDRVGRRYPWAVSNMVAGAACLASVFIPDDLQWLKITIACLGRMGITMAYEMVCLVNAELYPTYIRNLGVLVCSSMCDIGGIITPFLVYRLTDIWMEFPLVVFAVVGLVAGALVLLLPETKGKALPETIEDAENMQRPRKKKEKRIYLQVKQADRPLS
The test can be described thus: TP_TRANSPORTER: inhibition of TEA uptake (apical to cell) in OCT2-expressing NIH3T3 cells.

What is called Ki is the equilibrium dissociation constant of an inhibitor or competing ligand from its target. Low values mean higher affinity, high ones lower affinity. Turning to `[NH2][Pt]([NH2])([Cl])[Cl]` [cis-Platinum diamminedichloride], the affinity corresponds to a Ki of 925 µM.

Values taken from BindingDB's records for doi:10.1093/toxsci/47.2.181 (University of Texas M. D. Anderson Cancer Center, 1999).
